Experimental data published in patent US20260183321A1, “TREATMENT OF CORONAVIRUS INFECTIONS WITH ANTIMICROBIAL PHOSPHOLIPID COMPOSITIONS” (NATIONAL JEWISH HEALTH, priority 2022, published 2026).

Assays:
[1] = tested on: B.1.617.2 (delta variant); assay type: cell-based, SARS-CoV-2; conditions: healthy control subjects n=4, m.o.i. 0.1, 48 hrs; 10 mg/ml POPG, 4 mg/ml PI, prophylactic
[2] = tested on: SARS-CoV-2 variant, B.1.351; assay type: cell-based
[3] = tested on: B1.1.529 (omicron variant); assay type: cell-based, SARS-CoV-2; conditions: healthy control subjects n=4, m.o.i. 0.1, 48 Hr; 10 mg/ml POPG, 4 mg/ml PI, prophylactic

CCCCCCCC/C=C\CCCCCCCC(=O)O[C@H](COC(=O)CCCCCCCCCCCCCCC)COP(=O)(O)OCC(O)CO (stereo partly drawn) [POPG, palmitoyl-oleoyl-phosphatidylglycerol]
B.1.617.2 (delta variant) replication [1]: inhibited
attenuation of B.1.351 replication [2]: 50%
B.1.1.529 (Omicron variant) replication [3]: inhibited

phosphatidylinositol [PI]
B.1.617.2 (delta variant) replication [1]: inhibited
attenuation of B.1.351 replication [2]: 70%
B.1.1.529 (Omicron variant) replication [3]: inhibited
